Test results from US7550507B2, “2-(alpha-hydroxypentyl) benzoate and its preparation and use” (Institute of Materia Medica, Chinese Academy of Medical …, priority 2002, dated 2009).
Values joined by “and” are separate entries in the source; they are usually repeats but may differ in a detail not shown here. Identical values can stand only once. Marks after values point to notes of the source that are not given here.

Experiments:
rats of permanent MCAO = experiment: Infarction area after local cerebral ischemia (permanent MCAO) in rats, TTC staining; format: in vivo, male Wistar rats; conditions: 24 hours after MCAO; for infarct area (weight percentage of the infarct tissue to the total cerebral tissue), X ± SD: 200 mg/kg p.o. with HCl (pH 1.6) 0.5 ml, 30 min prior to ischemia, control 26.99 ± 3.51
Experimental: Animal: male Wistar rats (250-280 g), from the Animal Center of the Chinese Academy of Medical Sciences.
dl-PHPB was dissolved in double distilled water.
Methods: Middle cerebral artery occlusion(MCAO): the rats were anesthetized by trichloroacetaldehyde monohydrate (350 mg/kg, ip). The left CCA was exposed through a middle neck incision and was carefully dissected free from surrounding nerves. The ICA and ECA were isolated. Then a 4 cm long 0.26 mm diameter nylon suture was inserted through proximal ECA into ICA for a length of […] from the bifurcation. The wounds were sutured and the rats were released. The room temperature was kept 24-25° C. during the test.
Animals were divided into two groups, 1) administration group: dl-PHPB (200 mg/kg) and HCl (pH 1.6) 0.5 ml (to mimic the acidic condition of the human stomach) were administrated per os (p.o) 30 minutes prior to ischemia; 2) Control group: double-distilled water and HCl (pH 1.6) 0.5 ml were administrated per os (p.o) 30 minutes prior to ischemia.
The anaesthetized animals were decapitated 24 hours after MCAO. Each brain were rapidly removed and kept in ice-cold saline (0-4° C.). After 10 minutes, the coronal section was sliced into five pieces after the removal of bulbus olfactus, cerebellum, and low brain stem. Upon cutting, the first cut was at the center point of the connection line of the polus anterior of cerebrum and the optic chiasm, the second cut was at the site of optic chiasm, the third was at the site of infundibulum stalk, and the fourth was between the infundibulum stalk and the caudal pole of posterior lobe. The sliced brain was kept in a 5 ml solution of TTC (4%) and K2HPO4 (1M), shaded and incubated at 37° C. for 30 minutes. During the incubation, slices were turned over every 7 -8 minutes. […] The infarcted tissue was separated from the normal tissue and weighed. The infarction area is calculated from the weight percentage of the infarct tissue to the total cerebral tissue.

[1] = test system: platelet aggregation induced by ADP; experiment: Platelet aggregation induced by ADP in PRP of rats after oral administration (Born method); format: in vivo, male Wistar rats; conditions: ADP 5 μmol/L
Experimental: Animal: male Wistar rats (260-280 g), from the Animal Center of the Chinese Academy of Medical Sciences.
Potassium 2-(1-hydroxypentyl)-benzoate, dl-PHPB),
ADP, obtained from Shanghai Institute of Biochemistry, Acedemia Sinica.
Equipment: Platelet Aggregometer (type: PAT-4A MEGURO-KU, TOKYO, JAPAN.
Groups: Animals were divided into four groups:
1) Control group: double-distilled water (400 mg/kg) was adimistrated per os (p.o) 30 minutes prior blood sampling;
2) Dl-PHPB (400 mg/kg) was administrated per os (p.o) 30 minutes prior to the blood sampling;
3) Dl-PHPB (400 mg/kg) was administrated per os (p.o) 60 minutes prior to the blood sampling;
4) Dl-PHPB (200 mg/kg) was administrated per os (p.o) 30 minutes prior to the blood sampling;
After oral administration of dl-PHPB, blood was drawn from the carotid of rats at the time points of 30 and 60 minutes, respectively. Platelet rich plasma (PRP) and platelet poor plasma (PPP) were prepared upon common procedure. According to the method described by of Born, PRP (200 μl) was put on the Platelet Aggregometer and pre-incubated at 37° C. for 5 minutes and then ADP with the final concentration of 5 μmol/L was added to induce platelet aggregation. The maximum aggregation was measured 5 minutes after the addition of ADP.

isolated hearts on rats = experiment: Cardiac arrhythmia induced by ischemia-reperfusion in isolated rat hearts (Langendorff perfusion); parameters: species or system male Wistar rats; conditions: for Duration of Arrhythmia: 15 min ischemia, 30 min reperfusion, control 22.5 ± 9.5; for VT Duration: control 8.2 ± 7.9; for VF Incidence: control 33.3; for Spasmic VT Incidence: control 66.7; for VE Incidence: control 83.3; for VT Incidence: control 100
Experimental: Animals: male Wistar rats, 250-300 g, from the Animal Center of the Chinese Academy of Medical Sciences, randomly grouped.
Langendoff perfusion system;
XD-7100 ECG, Shanghai Medical Electronic Devices Factory
(1) remove the rat heart quickly after decapitation and put it into K—H solution at 4° C., fix the aorta to the perfusion system;
(2) perfuse the heart with K—H solution, 6-8 ml/min, 37±0.5° C., under the pressure of about 60 mmH2O;
(3) connect the two copper electrodes to the cardiac apex and the bottom of the right atria and record the cardiogram;
(4) perporate under the left anterior descending branch of the coronary artery with 3/0 line;
(5) perfuse the heart for 10 minutes and record the normal cardiogram;
(6) ligate the left anterior descending branch of the coronary artery to make myocardial ischemia for 15 minutes;
(7) nip the line and resume the perfusion, record the change of cardiogram for 30 minutes (mainly on VF and Spasmic VT);
(8) dissolve the dl-PHPB at pH 1.5 to a desired concentration, add it into K—H solution to do the experiments.

Structure (SMILES): CCCCC(O)c1ccccc1C(=O)[O-].[K+] (racemic) [dl-PHPB, Potassium dl-2-(α-hydroxypentyl) benzoate]
- infarct area, individual animals of treated group (rats of permanent MCAO; 200 mg/kg p.o. 30 min prior to ischemia, single rats): 18.79% and 26.01% and 20.24% and 18.24% and 22.74% and 16.84% and 15.93%
- infarct area (weight percentage of the infarct tissue to the total cerebral tissue), X ± SD (rats of permanent MCAO): 19.83 ± 3.53 %
- infarct area (weight percentage of the infarct tissue to the total cerebral tissue), X ± SD (rats of permanent MCAO; listed as dl-PHBP): 19.83±3.53%
- Rate of inhibition ([1]; 200 mg/kg p.o., 30 min): 6.62%
- Rate of inhibition ([1]; 400 mg/kg p.o., 30 min): 19.31%
- Rate of inhibition ([1]; 400 mg/kg p.o., 60 min): 10.21%
- Duration of Arrhythmia (isolated hearts on rats; 10^−4 mol/L in K-H solution): 1.7 ± 0.6 min
- VT Duration (isolated hearts on rats; 10^−4 mol/L): 1.1 ± 0.6 min
- VF Incidence (isolated hearts on rats; 10^−4 mol/L): 0%
- Spasmic VT Incidence (isolated hearts on rats; 10^−4 mol/L): 0* %
- VE Incidence (isolated hearts on rats; 10^−4 mol/L): 42.9%
- VT Incidence (isolated hearts on rats; 10^−4 mol/L): 100%
- Duration of Arrhythmia (isolated hearts on rats; 10^−5 mol/L in K-H solution): 23.3 ± 5.8 min
- VT Duration (isolated hearts on rats; 10^−5 mol/L): 5.0 ± 6.5 min
- VF Incidence (isolated hearts on rats; 10^−5 mol/L): 33.3%
- Spasmic VT Incidence (isolated hearts on rats; 10^−5 mol/L): 50%
- VE Incidence (isolated hearts on rats; 10^−5 mol/L): 66.7%
- VT Incidence (isolated hearts on rats; 10^−5 mol/L): 100%
